Results reported in patent publication US20250288587A1, “Methods of Treating Fibrosis” (Athira Pharma, Inc., priority 2022, published 2025).

Key:
[1] = tested on: CFA-stimulated rats; test: CFA inflammatory pain model, thermal hyperalgesia (Hargreaves method); assay type: in vivo; design: key to Thermal Hyperalgesia, change in sensitivity compared to CFA alone: NS = no statistically significant change in sensitivity compared to CFA alone; + = statistically significant change in sensitivity compared to CFA alone, p < 0.05; details: 0.025 mg/kg PO daily; Day 3, 1 h post-dose
[2] = tested on: MRC-5 cells; test: TGFβ-stimulated αSMA expression in MRC-5 cells (HTRF); assay type: cell-based; design: key to Significant reduction in αSMA via HTRF compared to TGFβ alone: NS = no statistically significant change in aSMA expression; + = p < 0.05; ++ = p < 0.01; +++ = p < 0.005; ++++ = p < 0.001; details: for Significant reduction in αSMA via HTRF compared to TGFβ alone: TGFβ 1 ng/ml, HGF 0.01 ng/ml, 48 h
Description: In this study, pulmonary-derived immortalized fibroblasts, MRC-5 cells, were cultured as a model of the early transition to fibrosis, and αSMA expression was measured using an immunodetection system driven by homogenous time-resolved fluorescence (HTRF) technology. This detection system produces a fluorescent signal in the presence of αSMA in cell lysates. Cells were grown to confluence in 96-well culture plates in complete media, and then transitioned to serum-free media for 2 hours. Next TGFβ (final 1 ng/ml in serum-free media) was added to the cells to stimulate the fibrotic transition. After 2 hours, media containing either HGF or HGF combined with one of the compounds was added to the cells. After incubation for 48 hours, cells were lysed and processed for αSMA HTRF to detect the levels of αSMA expression and compared to TGFβ-stimulated cultures. Statistical analysis consisted of 1-way ANOVA with a Dunnett's multiple comparison's post-test.

[3] = tested on: CFA-stimulated rats; test: CFA inflammatory pain model, thermal hyperalgesia (Hargreaves method); assay type: in vivo; design: key to Thermal Hyperalgesia, change in sensitivity compared to CFA alone / Thermal Hyperalgesia, significant reduction in pain behavior vs CFA alone: NS = no statistically significant change in sensitivity compared to CFA alone; + = statistically significant change in sensitivity compared to CFA alone, p < 0.05
Description: (§1) Response to peripheral inflammatory stimulus can be modeled by administering complete Freund's adjuvant (CFA), a suspension of desiccated mycobacterium in paraffin oil and mannide monooleate, by subcutaneous injection into the rat's footpad. The introduction of CFA to peripheral tissues leads to a rapid, sustained, inflammatory reaction in the treated tissue within 24 hours. Subcutaneous administration of CFA in the plantar region of the paw induces inflammatory pain behaviors that persist for at least 8 days. CFA treatment also leads to the accumulation of inflammatory cytokines in paw tissue at the site of injury, which, if unresolved, can lead to formation of fibrotic tissue. The extent of inflammatory response to CFA can be assessed by quantification of inflammatory cytokines in paw skin lysate, and inflammatory pain behaviors by mechanical allodynia (von Frey test) and thermal hyperalgesia (Hargreaves test).
(§2) In one study, Compound 2a was tested for its ability to reduce inflammatory pain behaviors in the CFA inflammation model. On study day 0, […] of CFA was administered subcutaneously in the plantar of the right hind paw. Animals were treated daily with Compound 2a in solution via oral gavage (PO) at doses of 1, 0.1, and 0.025 mg/kg. Treatment began before CFA injection on study day −1 and continued through study day 8.
Thermal hyperalgesia was measured using the Hargreaves method. A temperature ramp was applied to the right hind paw and the paw withdrawal latency (PWL) was recorded as a measure of sensitivity to thermal stimulation. […] Statistical analysis was performed using a 1-way ANOVA with Tukey post-test. A p-value below 0.05 was considered statistically significant.
(§3) In another study, Compounds 1a, 5a, and 6a were similarly tested against CFA-induced inflammatory stimulation in the right hind foot for their ability to reduce pain behaviors. This study also included quantification of inflammatory cytokine expression in paw skin lysate. Inflammatory pain stimulation with CFA injection and assessment of mechanical and thermal pain behaviors were performed as described above, with the exception that only post-dose pain behavior testing is reported.
(§4) Intraplantar CFA injection occurred at day 0. Treatment with Compounds 1a, 5a, and 6a occurred at days −2, 1, 3, and 7. At day 8, the rats were terminated and cytokine levels were measured in paw skin and plasma. Tissue from paw bone, joint, and muscle were obtained for H&E staining and analysis. Cytokine levels in test compound-treated animals were compared to CFA-stimulated animals. Analytes included interleukin 4 (IL-4), tumor necrosis factor alpha (TNF-α) and interferon gamma (IFN-γ). Statistical analysis consisted of 1-way ANOVA followed by Dunnett's multiple comparisons post-test. Mechanical allodynia and thermal hyperalgesia were tested 1 hour post-dosing on days 1, 3, and 7. PWT refers to […] paw withdrawal threshold where a higher value corresponds to a higher pain threshold. PWL refers to […] paw withdrawal latency where a higher value corresponds to a higher pain threshold.

[4] = tested on: CFA-stimulated rats; test: CFA inflammatory pain model, mechanical allodynia (von Frey test); assay type: in vivo; design: key to Mechanical Allodynia, change in sensitivity compared to CFA alone / Mechanical Allodynia, significant reduction in pain behavior vs CFA alone: NS = no statistically significant change in sensitivity compared to CFA alone; + = statistically significant change in sensitivity compared to CFA alone, p < 0.05
Description: as §1, §2
Mechanical allodynia was measured using the von Frey test. In this test, rats were placed on a wire mesh and a series of filaments designed to deliver probing force ranging from 4 to 26 grams were applied to the mid-plantar surface of the right hind paw. Animals indicated pain response by lifting the probed paw. The minimal force required to elicit the withdrawal response was recorded as the paw withdrawal threshold (PWT). Von Frey testing was performed 1 hour after Compound 2a dosing on study day 1, 3, and 7, and was also tested pre-dosing on day 7. Statistical analysis was performed using a 1-way ANOVA with Tukey post-test. A p-value below 0.05 was considered statistically significant. Control animals stimulated with CFA but treated with only vehicle had high sensitivity to mechanical stimulation compared to normal control animals.
as §3, §4

[5] = 0.025 mg/kg PO daily, Day 1, 1 h post-dose
[6] = 0.025 mg/kg PO daily, Day 7 post-dose
[7] = 0.025 mg/kg PO daily, Day 7 pre-dose
[8] = 0.1 mg/kg PO daily, Day 1, 1 h post-dose
[9] = 0.1 mg/kg PO daily, Day 3, 1 h post-dose
[10] = 0.1 mg/kg PO daily, Day 7 post-dose
[11] = 0.1 mg/kg PO daily, Day 7 pre-dose
[12] = 1 mg/kg PO daily, Day 1, 1 h post-dose
[13] = 1 mg/kg PO daily, Day 3, 1 h post-dose
[14] = 1 mg/kg PO daily, Day 7 post-dose
[15] = 1 mg/kg PO daily, Day 7 pre-dose

CCC(C)CN1CC2N(C(=O)c3ccc(OC(F)F)cc3)CCC(=O)N2[C@@H](C)C1=O (some centres unmarked) [Compound 2a]
Thermal Hyperalgesia, change in sensitivity compared to CFA alone [1]: NS
αSMA expression ([2]; 1 uM, combined with 0.01 ng/ml HGF): significantly reduced αSMA
Significant reduction in αSMA via HTRF compared to TGFβ alone ([2]; test compound 1 nM): NS
Significant reduction in αSMA via HTRF compared to TGFβ alone ([2]; test compound 1 μM): ++++ (++++ = p < 0.001)
Thermal Hyperalgesia, change in sensitivity compared to CFA alone [3, 5]: NS
Thermal Hyperalgesia, change in sensitivity compared to CFA alone [3, 6]: NS
Thermal Hyperalgesia, change in sensitivity compared to CFA alone [3, 7]: NS
Thermal Hyperalgesia, change in sensitivity compared to CFA alone [3, 8]: NS
Thermal Hyperalgesia, change in sensitivity compared to CFA alone [3, 9]: NS
Thermal Hyperalgesia, change in sensitivity compared to CFA alone [3, 10]: NS
Thermal Hyperalgesia, change in sensitivity compared to CFA alone [3, 11]: NS
Thermal Hyperalgesia, change in sensitivity compared to CFA alone [3, 12]: NS
Thermal Hyperalgesia, change in sensitivity compared to CFA alone [3, 13]: + (+ = statistically significant change in sensitivity compared to CFA alone, p < 0.05)
Thermal Hyperalgesia, change in sensitivity compared to CFA alone [3, 14]: NS
Thermal Hyperalgesia, change in sensitivity compared to CFA alone [3, 15]: + (+ = statistically significant change in sensitivity compared to CFA alone, p < 0.05)
thermal sensitivity (paw withdrawal latency) ([3]; 1 mg/kg, day 3 and pre-dose testing on day 7): reduced thermal sensitivity
Mechanical Allodynia, change in sensitivity compared to CFA alone [4, 5]: NS
Mechanical Allodynia, change in sensitivity compared to CFA alone ([4]; 0.025 mg/kg PO daily, Day 3, 1 h post-dose): NS
Mechanical Allodynia, change in sensitivity compared to CFA alone [4, 6]: NS
Mechanical Allodynia, change in sensitivity compared to CFA alone [4, 7]: NS
Mechanical Allodynia, change in sensitivity compared to CFA alone [4, 8]: NS
Mechanical Allodynia, change in sensitivity compared to CFA alone [4, 9]: NS
Mechanical Allodynia, change in sensitivity compared to CFA alone [4, 10]: NS
Mechanical Allodynia, change in sensitivity compared to CFA alone [4, 11]: NS
Mechanical Allodynia, change in sensitivity compared to CFA alone [4, 12]: NS
Mechanical Allodynia, change in sensitivity compared to CFA alone [4, 13]: NS
Mechanical Allodynia, change in sensitivity compared to CFA alone [4, 14]: + (+ = statistically significant change in sensitivity compared to CFA alone, p < 0.05)
Mechanical Allodynia, change in sensitivity compared to CFA alone [4, 15]: NS
mechanical allodynia (paw withdrawal threshold) ([4]; 1 mg/kg, study day 7, post-dose testing): reduced mechanical allodynia
